Experimental data published in patent US20250325529A1, “INHIBITORS OF FATTY ACID BINDING PROTEINS (FABPs), METHODS OF USE AND METHODS OF MAKING” (Celloram, inc., priority 2024, published 2025).

Experiments:
[1] = Single dose IV and PO PK study in Han Wistar rats; assay type: in vivo
Procedure: C57BL/6 male mice or Han Wistar rats were used, n=3 for each administration route and compound. Single dose of each compound was administered orally (PO, 10 mg/Kg) or by intravenous administration (IV, 1 mg/Kg). Following intravenous and oral administration, blood samples (ca 0.2 mL) were collected and compound amount was measured by HLPC. For IV group, blood samples were collected at 0.083, 0.25, 0.5, 1, 2, 4, 6, 8, and 24 hours post-dose. For PO group, blood samples were collected at 0.25, 0.5, 1, 2, 4, 6, 8, and 24 hours post-dose.

FABP3 = FABP3 (Homo sapiens (Human), UniProt P05413); assay: Fluorescence (ANS) competition binding assay, FABP3; conditions: ANS displacement
Chain of FABP3 (P05413 whole entry, species assumed): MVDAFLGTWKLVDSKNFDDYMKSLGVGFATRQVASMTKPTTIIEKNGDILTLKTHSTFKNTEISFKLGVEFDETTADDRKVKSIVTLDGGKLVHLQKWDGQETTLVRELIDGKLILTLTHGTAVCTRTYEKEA
Method in brief: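 His-tagged FABPs were expressed in E. coli. Kd for ANS was first determined by titrating 2 μM protein with ANS and following fluorescence increase. Compounds then displaced ANS from 1:1 protein:ANS complexes, and Kd was derived from the competition EC50 and the ANS Kd.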

[2] = test system: NOD mouse model of autoimmune type 1 diabetes; assay: NOD mouse model of autoimmune type 1 diabetes; assay type: in vivo, NOD/ShiLtJ mice; conditions: female NOD mice
Procedure: Female NOD/ShiLtJ mice were purchased from Jackson's lab at age of 7 weeks. Mice were housed in a temperature-controlled facility (23° C., 12-h light/dark cycle). Weekly non-fasting blood glucose concentrations were measured in the morning by tail vein prick starting at 8 weeks of age by using a blood glucose test meter (OTUltra2 system, Lifescam, USA) and strips according to manufacturer's instruction. Any reading of blood glucose higher than 200 mg/dL was confirmed by another test 24 hours later. Diabetes was diagnosed by 2 consensus positive blood glucose tests higher than 200 mg/dL. At 13 weeks of age, mice were divided into 3 treatments groups (n=15/group) as followed: 1) control group, treated with vehicle (0.5% methyl cellulose, 1% Tween 80); 2) PD152 treated group (40 mg/Kg in vehicle); 3) anti-CD3 treated group (5 μg/mouse, in PBS). Groups 1 and 2 were treated by gavage 5 days a week throughout the duration of the experiment. Group 3 was treated by IV injection for only 5 consecutive days. Mice were sacrificed at the age of 27 weeks.
NOD mouse model of autoimmune type 1 diabetes was used to test the efficacy of FABP4/5 inhibitor PD152 on spontaneous development of the disease. […] Blood glucose levels were measured weekly for monitoring the incidence of diabetes until termination at 27 weeks of age. […]

[3] = test system: Salmonella typhimurium tester strain TA98; assay: Ames test (Bacterial Reverse Mutation Test), TA98; assay type: cell-based
Procedure: PD152 (compound 2) was tested for genotoxic and cytotoxic side effects by Ames test. The Ames test is a Bacterial Reverse Mutation Test of mutagenicity that utilizes Salmonella typhimurium tester strains TA98, TA100, TA1535, TA1537 and Escherichia coli tester strain WP2 uvrA (pKM101), both in the presence and absence of S9.
The compound PD152 was tested at 10 concentrations (0.032-1000 μg/plate) in the presence of, or absence of, the hepatic enzyme S9.
The aniline FABP4/5 inhibitor compound, 2-((2-((2,4-dichloro-5-isopropoxyphenyl)amino)-2-oxoethyl)thio)-2-methylpropanoic acid (compound “B104” as disclosed in WO2023043803A1) also was tested for genotoxic and cytotoxic side effects by Ames test. […]

[4] = rat, plasma, intravenous 1 mg/kg
[5] = TA98, presence of S9, 0.0312 μg/plate
[6] = TA98, presence of S9, 0.1 μg/plate
[7] = TA98, presence of S9, 0.316 μg/plate
[8] = TA98, presence of S9, 1 μg/plate
[9] = TA98, presence of S9, 3.16 μg/plate
[10] = TA98, presence of S9, 10 μg/plate
[11] = TA98, presence of S9, 31.6 μg/plate
[12] = TA98, presence of S9, 100 μg/plate
[13] = TA98, presence of S9, 316 μg/plate
[14] = TA98, presence of S9, 1000 μg/plate

SMILES: CC(C)Oc1nc(NC(=O)CSCC(=O)O)c(Cl)cc1Cl [PD152, 2-((2-((3,5-dichloro-6-isopropoxypyridin-2-yl)amino)-2-oxoethyl)thio)acetic acid]
- Thalf ([1]; oral 10 mg/kg): 1.13 h
- clearance [1, 4]: 16 mL/min/kg
- half-life [1, 4]: ~43.8 min
- bioavailability ([1]; rat, plasma, oral 10 mg/kg): 141%
- Kd (FABP3): 0.188 µM
- Diabetes incidence ([2]; 40 mg/Kg by gavage 5 days a week from 13 weeks, by 27 weeks of age): 46.7%
- Lower blood glucose levels, difference to control ([2]; at 27 weeks of age): about 2 fold
- Fold increase [3, 5]: 1
- Mean number of revertants [3, 5]: 6
- Fold increase [3, 6]: 1
- Mean number of revertants [3, 6]: 5
- Fold increase [3, 7]: 1
- Mean number of revertants [3, 7]: 6
- Fold increase [3, 8]: 1
- Mean number of revertants [3, 8]: 6
- Fold increase [3, 9]: 1
- Mean number of revertants [3, 9]: 6
- Fold increase [3, 10]: 1
- Mean number of revertants [3, 10]: 6
- Fold increase [3, 11]: 1
- Mean number of revertants [3, 11]: 6
- Fold increase [3, 12]: 1
- Mean number of revertants [3, 12]: 6
- Fold increase [3, 13]: 1
- Mean number of revertants [3, 13]: 6
- Fold increase [3, 14]: 1
- Mean number of revertants [3, 14]: 5
